# Results from US10370366B2 (Flatley Discovery Lab, LLC, priority 2013, dated 2019).
# Biological target: T1, human F508del CFTR (Homo sapiens, UniProt P13569, DEL508-508)
# T1 construct: expressed in transfected cells; host or cells: Fisher Rat Thyroid (FRT) cells
# Assay: CFTR-YFP High Throughput Assay
# Assay type: cell-based
# Conditions: FRT cells expressing human F508del CFTR and YFP; for Emax: EMax normalized to the positive control, read-out: % Efficacy
# Protocol: Assays for Detecting and Measuring the Effect of Compounds on F508del-CFTR Channels CFTR-YFP High Throughput Assay-CFTR Corrector Protocol:
# This protocol is designed to selectively screen small molecule compounds for F508del CFTR corrector activities in the HTS YFP (yellow fluorescent protein) flux assay. In this protocol, the cells are incubated with testing compounds for 24 hours, washed with PBS, stimulated with forskolin and a standard potentiator, and fluorescence in each plate well is measured kinetically read on a 384-well HTS plate reader, such as the Hamamatsu FDSS-6000.
# YFP fluorescence intensity values are acquired at high speed before and after iodide buffer is injected to the assay cells. Iodide enters the cells via active CFTR channels in the plasma membrane, and quenches the YFP fluorescence. The rate of fluorescence quenching is proportionate to the total CFTR activity in the cell membrane. F508del CFTR correctors increase the number of CFTR molecules in the testing cell plasma membrane, and thereby accelerate YFP quenching.
# This method was initially developed for bench top plate readers (Galietta et al., 2001), and was adapted to the HTS format (Sui et al. Assay Drug Dev. Technol. 2010).
# Fisher Rat Thyroid (FRT) cells stably expressing both human F508del CFTR and a halide-sensitive yellow fluorescent protein (YFP-H148Q/I152L 25,22) (Galietta et al. Am. J. Physiol Cell Physiol 281(5), C1734, 2001) were cultured on plastic surface in Coon's modified Ham's F12 medium supplemented with FBS 10%, L-glutamine 2 mM, penicillin 100 U/ml, and streptomycin 100 µg/ml. G418 (0.75-1.0 mg/ml) and zeocin (3.2 ug/ml) were used for selection of FRT cells expressing F508del CFTR and YFP. For primary screening, FRT cells were plated into 384-well black wall, transparent bottom microtiter plates (Costar; Corning Inc.) at a cell density of 20,000-40,000 per well. Test compound was applied to the cells at varying concentrations ranging from 2 nM-40 μM in either a 2-fold or 3-fold dilution series. Cells were incubated in a cell culture incubator at 37° C. with 5% CO2 for 24-26 h. Assay plates were washed with DPBS media (Thermo, cat# SH30028.02) to remove unbound cells and compound. Stimulation media (25 μL) containing 20 μM Forskolin & 30 μM P3 [6-(Ethyl-phenyl-sulfonyl)-4-oxo-1,4-dihydro-quinoline-3-carboxylic acid 2-methoxy-benzylamide] in Hams F-12 coon's modified media was added to the plate wells and incubated at room temperature for 60-120 min. […] (10 mM HEPES, 1 mM MgCl2, 3 mM KCl, 1 mM CaCl2, 150 mM NaI) was then added and fluorescence quench curves (Excitation 500 nm/Emission 540 nm; exposure 136 ms) were immediately recorded on an FDSS-6000 plate reader (Hamamatsu). Quench rates were derived from least squares fitting of the data as described by Sui et al (2010).
# CFTR-YFP High Throughput Assay-CFTR Potentiator Protocol:
# This protocol is designed to selectively screen small molecule compounds for F508del CFTR potentiator activities in the HTS YFP flux assay. Such compounds act acutely to stimulate CFTR already expressed on the membrane surface. In this protocol, the cells are incubated at 27° C. for 24 hours to homogeneously boost F508del CFTR expression in the cell membrane (low temperature correction), washed with PBS, treated with test compound, and CFTR activity is stimulated with forskolin for 1-2 hr. Measurement of ion flux is initiated by addition of iodide-containing buffer, and YFP quenching is kinetically recorded using a 384-well HTS plate reader, such as the Hamamatsu FDSS-6000.
# YFP fluorescence intensity values are acquired at high speed over a 1 min time course before and after iodide buffer is injected to the assay cells. Iodide enters the cells via active CFTR channels in the plasma membrane, and quenches the YFP fluorescence. The rate of fluorescence quenching is proportionate to total CFTR activity in the cell membrane. […]
# T1 sequence (P13569 with tags, fused parts or gaps DEL508-508): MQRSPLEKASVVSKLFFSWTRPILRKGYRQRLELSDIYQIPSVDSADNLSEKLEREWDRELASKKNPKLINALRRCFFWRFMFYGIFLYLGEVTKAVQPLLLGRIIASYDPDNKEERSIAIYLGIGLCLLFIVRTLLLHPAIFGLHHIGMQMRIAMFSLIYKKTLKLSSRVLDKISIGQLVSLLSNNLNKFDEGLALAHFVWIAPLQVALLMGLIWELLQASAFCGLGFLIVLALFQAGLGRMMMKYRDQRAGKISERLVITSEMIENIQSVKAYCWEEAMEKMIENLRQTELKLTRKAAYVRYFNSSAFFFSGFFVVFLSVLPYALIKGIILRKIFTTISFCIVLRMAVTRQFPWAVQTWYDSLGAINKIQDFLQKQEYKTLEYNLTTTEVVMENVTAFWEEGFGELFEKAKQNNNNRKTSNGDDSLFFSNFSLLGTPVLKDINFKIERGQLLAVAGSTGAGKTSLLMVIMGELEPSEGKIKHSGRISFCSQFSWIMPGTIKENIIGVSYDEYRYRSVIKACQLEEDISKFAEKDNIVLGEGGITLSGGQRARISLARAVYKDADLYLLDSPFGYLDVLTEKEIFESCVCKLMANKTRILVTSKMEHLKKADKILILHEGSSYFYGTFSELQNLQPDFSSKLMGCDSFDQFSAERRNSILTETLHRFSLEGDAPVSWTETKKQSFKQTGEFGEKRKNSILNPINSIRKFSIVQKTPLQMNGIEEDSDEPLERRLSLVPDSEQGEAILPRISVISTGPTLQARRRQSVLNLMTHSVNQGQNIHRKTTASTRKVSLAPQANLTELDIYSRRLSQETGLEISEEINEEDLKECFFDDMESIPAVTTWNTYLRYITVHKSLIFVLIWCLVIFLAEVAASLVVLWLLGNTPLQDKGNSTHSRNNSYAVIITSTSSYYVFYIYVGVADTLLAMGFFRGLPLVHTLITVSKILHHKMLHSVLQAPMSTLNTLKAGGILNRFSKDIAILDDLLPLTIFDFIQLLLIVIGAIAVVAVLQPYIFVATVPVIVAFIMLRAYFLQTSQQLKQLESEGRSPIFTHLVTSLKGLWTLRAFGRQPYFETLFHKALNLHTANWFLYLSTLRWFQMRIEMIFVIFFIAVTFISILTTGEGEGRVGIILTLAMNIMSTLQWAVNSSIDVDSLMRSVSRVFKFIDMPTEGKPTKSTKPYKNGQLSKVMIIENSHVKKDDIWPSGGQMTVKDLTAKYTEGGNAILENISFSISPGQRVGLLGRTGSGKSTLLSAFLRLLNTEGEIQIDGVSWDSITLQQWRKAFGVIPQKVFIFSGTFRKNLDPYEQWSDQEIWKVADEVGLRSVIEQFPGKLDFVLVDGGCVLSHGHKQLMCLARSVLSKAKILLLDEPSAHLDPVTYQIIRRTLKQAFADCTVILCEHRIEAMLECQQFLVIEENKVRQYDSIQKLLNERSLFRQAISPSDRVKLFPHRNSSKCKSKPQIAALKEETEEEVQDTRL
structure (smiles),measurement,value
"CCN(C(=O)Cn1nc(Cc2cccnc2)c2cc(Cl)ccc2c1=O)c1ccc2c(c1)OC(F)(F)O2 [Example 53, 2-(6-chloro-1-oxo-4-(pyridin-3-ylmethyl)phthalazin-2(1H)-yl)-N-(2,2-difluorobenzo[d][1,3]dioxol-5-yl)-N-ethylacetamide]",Emax,30 to 80%
"CCN(C(=O)Cn1nc(Cc2cccnc2)c2ccc(Cl)cc2c1=O)c1ccc2c(c1)OC(F)(F)O2 [Example 54, 2-(7-chloro-1-oxo-4-(pyridin-3-ylmethyl)phthalazin-2(1H)-yl)-N-(2,2-difluorobenzo[d][1,3]dioxol-5-yl)-N-ethylacetamide]",Emax,30 to 80%
"CCN(C(=O)Cn1nc(Cc2cccnc2)c2cccc(OC)c2c1=O)c1ccc2c(c1)OC(F)(F)O2 [Example 55, N-(2,2-difluorobenzo[d][1,3]dioxol-5-yl)-N-ethyl-2-(8-methoxy-1-oxo-4-(pyridin-3-ylmethyl)phthalazin-2(1H)-yl)acetamide]",Emax,30 to 80%
"CCN(C(=O)Cn1nc(Cc2cccnc2)c2c(OC)cccc2c1=O)c1ccc2c(c1)OC(F)(F)O2 [Example 56, N-(2,2-difluorobenzo[d][1,3]dioxol-5-yl)-N-ethyl-2-(5-methoxy-1-oxo-4-(pyridin-3-ylmethyl)phthalazin-2(1H)-yl)acetamide]",Emax,30 to 80%
"CCOc1cccc2c(Cc3cccnc3)nn(CC(=O)N(CC)c3ccc4c(c3)OC(F)(F)O4)c(=O)c12 [Example 57, N-(2,2-difluorobenzo[d][1,3]dioxol-5-yl)-N-ethyl-2-(8-ethoxy-1-oxo-4-(pyridin-3-ylmethyl)phthalazin-2(1H)-yl)acetamide]",Emax,30 to 80%
"CCOc1cccc2c(=O)n(CC(=O)N(CC)c3ccc4c(c3)OC(F)(F)O4)nc(Cc3cccnc3)c12 [Example 58, N-(2,2-difluorobenzo[d][1,3]dioxol-5-yl)-N-ethyl-2-(5-ethoxy-1-oxo-4-(pyridin-3-ylmethyl)phthalazin-2(1H)-yl)acetamide]",Emax,30 to 80%
same,EC50,< 10 µM
"CCN(C(=O)Cn1nc(Cc2cccnc2)c2cccc(OC3CCCCC3)c2c1=O)c1ccc2c(c1)OC(F)(F)O2 [Example 59, 2-(8-(cyclohexyloxy)-1-oxo-4-(pyridin-3-ylmethyl)phthalazin-2(1H)-yl)-N-(2,2-difluorobenzo[d][1,3]dioxol-5-yl)-N-ethylacetamide]",Emax,30 to 80%
same,EC50,10 to 20 µM
"CCN(C(=O)Cn1nc(Cc2cccnc2)c2c(OC3CCCCC3)cccc2c1=O)c1ccc2c(c1)OC(F)(F)O2 [Example 60, 2-(5-(cyclohexyloxy)-1-oxo-4-(pyridin-3-ylmethyl)phthalazin-2(1H)-yl)-N-(2,2-difluorobenzo[d][1,3]dioxol-5-yl)-N-ethylacetamide]",Emax,30 to 80%
"CCN(C(=O)Cn1nc(Cc2cccnc2)c2cccc(OCCOC)c2c1=O)c1ccc2c(c1)OC(F)(F)O2 [Example 61, N-(2,2-difluorobenzo[d][1,3]dioxol-5-yl)-N-ethyl-2-(8-(2-methoxyethoxy)-1-oxo-4-(pyridin-3-ylmethyl)phthalazin-2(1H)-yl)acetamide]",Emax,30 to 80%
"CCN(C(=O)Cn1nc(Cc2cccnc2)c2c(OCCOC)cccc2c1=O)c1ccc2c(c1)OC(F)(F)O2 [Example 62, N-(2,2-difluorobenzo[d][1,3]dioxol-5-yl)-N-ethyl-2-(5-(2-methoxyethoxy)-1-oxo-4-(pyridin-3-ylmethyl)phthalazin-2(1H)-yl)acetamide]",Emax,30 to 80%
"CCOC(=O)c1ccc2c(-c3cccc(Cl)c3)nn(CC(=O)N(C)c3ccc4nc(C)oc4c3)c(=O)c2c1 [Example 65, ethyl 1-(3-chlorophenyl)-3-(2-(methyl(2-methylbenzo[d]oxazol-6-yl)amino)-2-oxoethyl)-4-oxo-3,4-dihydrophthalazine-6-carboxylate]",Emax,> 80%
same,EC50,< 10 µM
"CCOC(=O)c1ccc2c(=O)n(CC(=O)N(C)c3ccc4nc(C)oc4c3)nc(-c3cccc(Cl)c3)c2c1 [Example 66, ethyl 1-(3-chlorophenyl)-3-(2-(methyl(2-methylbenzo[d]oxazol-6-yl)amino)-2-oxoethyl)-4-oxo-3,4-dihydrophthalazine-7-carboxylate]",Emax,> 80%
same,EC50,< 10 µM
"CCOC(=O)c1ccc2c(-c3cccc(F)c3)nn(CC(=O)N(C)c3ccc4nc(C)oc4c3)c(=O)c2c1 [Example 67, ethyl 1-(3-fluorophenyl)-3-(2-(methyl(2-methyl-benzo[d]oxazol-6-yl)amino)-2-oxoethyl)-4-oxo-3,4-dihydrophthalazine-6-carboxylate]",Emax,30 to 80%
same,EC50,< 10 µM
"CCOC(=O)c1ccc2c(=O)n(CC(=O)N(C)c3ccc4nc(C)oc4c3)nc(-c3cccc(F)c3)c2c1 [Example 68, ethyl 4-(3-fluorophenyl)-2-(2-(methyl(2-methyl-benzo[d]oxazol-6-yl)amino)-2-oxoethyl)-1-oxo-1,2-dihydrophthalazine-6-carboxylate]",Emax,30 to 80%
same,EC50,< 10 µM
"COc1ccc2c(-c3cccc(C#N)c3)nn(CC(=O)N(C)c3ccc4c(c3)OC(F)(F)O4)c(=O)c2c1 [Example 69, 2-(4-(3-cyanophenyl)-7-methoxy-1-oxophthalazin-2(1H)-yl)-N-(2,2-difluorobenzo[d][1, 3]dioxol-5-yl)-N-methylacetamide]",Emax,> 80%
"COc1ccc2c(-c3ccc(S(N)(=O)=O)cc3)nn(CC(=O)N(C)c3ccc4c(c3)OC(F)(F)O4)c(=O)c2c1 [Example 71, N-(2,2-difluorobenzo[d][1,3]dioxol-5-yl)-2-(7-methoxy-1-oxo-4-(4-sulfamoylphenyl)phthalazin-2(1H)-yl)-N-methylacetamide]",Emax,30 to 80%
"CCN(C(=O)Cn1nc(-c2ccc(S(N)(=O)=O)cc2)c2ccc(OC)cc2c1=O)c1ccc2c(c1)OC(F)(F)O2 [Example 72, N-(2,2-difluorobenzo[d][1,3]dioxol-5-yl)-N-ethyl-2-(7-methoxy-1-oxo-4-(4-sulfamoylphenyl)phthalazin-2(1H)-yl)-acetamide]",Emax,> 80%
"CCN(C(=O)Cn1nc(-c2ccc(S(N)(=O)=O)cc2)c2ccc(OC)cc2c1=O)c1ccc(OC(F)F)cc1 [Example 73, N-(4-(difluoromethoxy)phenyl)-N-ethyl-2-(7-methoxy-1-oxo-4-(4-sulfamoylphenyl)phthalazin-2(1H)-yl)acetamide]",Emax,30 to 80%
same,EC50,< 10 µM
"CCN(C(=O)Cn1nc(-c2cccc(C#N)c2)c2ccc(OC)cc2c1=O)c1ccc(OC(F)F)cc1 [Example 74, 2-(4-(3-cyanophenyl)-7-methoxy-1-oxophthalazin-2(1H)-yl)-N-(4-(difluoromethoxy)phenyl)-N-ethylacetamide]",Emax,30 to 80%
"CCN(C(=O)Cn1nc(-c2cccc(C#N)c2)c2ccc(OC)cc2c1=O)c1ccc2c(c1)OC(F)(F)O2 [Example 75, 2-(4-(3-cyanophenyl)-7-methoxy-1-oxophthalazin-2(1H)-yl)-N-(2,2-difluorobenzo[d][1,3]dioxol-5-yl)-N-ethylacetamide]",Emax,> 80%
same,EC50,< 10 µM
"COc1ccc2c(-c3ccc(S(N)(=O)=O)cc3)nn(CC(=O)N(c3ccc4c(c3)OC(F)(F)O4)C(C)C)c(=O)c2c1 [Example 76, N-(2,2-difluorobenzo[d][1,3]dioxol-5-yl)-N-isopropyl-2-(7-methoxy-1-oxo-4-(4-sulfamoylphenyl)phthalazin-2(1H)-yl)acetamide]",Emax,> 80%
